5 compounds from the NIST ThermoML archive (doi:10.1016/j.jct.2011.11.026) can be followed below.

Series [1] in a line: molar heat capacity at constant pressure. Conditions: 298.15 K; 101.33 kPa; Crystal; Small sample (50 mg) DSC.
The conditions of series [2]: Crystal; DTA.
Series [3] can be described thus: Molar enthalpy of transition or fusion. Conditions: Crystal; DSC.

± gives the expanded uncertainty stated by the source.

On to `NS(=O)(=O)c1ccccc1` [benzenesulfonamide], for which, in series [1], the “molar heat capacity at constant pressure” value was 172.91 ± 9.4 J/K/mol. The Normal melting temperature in series [2] was 152.32 ± 0.39 °C. Moreover, the “Molar enthalpy of transition or fusion” value in series [3] came out at 5.67 ± 0.131 kcal/mol.

With `Nc1ccccc1S(N)(=O)=O` [2-aminobenzenesulfonamide], in series [1], the “molar heat capacity at constant pressure” value came to 173.93 ± 21 J/K/mol. The Normal melting temperature in series [2] came to 153.46 ± 0.39 °C. Also, the “Molar enthalpy of transition or fusion” value in series [3] came out at 5.6 ± 0.129 kcal/mol.

For `Cc1ccccc1S(N)(=O)=O` [o-toluenesulfonamide], in series [1], the “molar heat capacity at constant pressure” value is listed as 193.48 ± 21 J/K/mol. The “Molar enthalpy of transition or fusion” value in series [3] is 6.75 ± 0.179 kcal/mol.

With `Nc1ccc(S(N)(=O)=O)cc1` [4-aminobenzenesulfonamide], the “molar heat capacity at constant pressure” value in series [1] is listed as 199.76 ± 10 J/K/mol. The Normal melting temperature in series [2] is 164.53 ± 0.39 °C. For the same compound, in series [3], the “Molar enthalpy of transition or fusion” value turned out to be 5.33 ± 0.122 kcal/mol.

`Cc1ccc(S(N)(=O)=O)cc1` [p-toluenesulfonamide]: in series [1], the “molar heat capacity at constant pressure” value was 205.46 ± 14 J/K/mol. Besides, the Normal melting temperature in series [2] stood at 137.27 ± 0.39 °C. Moreover, in series [3], the “Molar enthalpy of transition or fusion” value is 5.72 ± 0.174 kcal/mol.
